Assay results: the supplement of paper PMC10307832

Legend:
Experiment in all cases: relative viability (nuclei count vs DMSO), 5 days (fraction); higher = more cells survive
BEN = tested on: BEN
Outline: (§1)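 Lung cancer cell lines in 1536-well plates were dosed by pin tool the day after seeding, either with one drug alone or with a fixed anchor-drug dose plus five library-drug doses (not always all listed) in √10 steps. After 5 days, cells were fixed and their nuclei stained in one step (final 0.05% Triton X-100, 1% formaldehyde, 1 ug/ml Hoechst), then counted on 4× images. Relative viability is the nuclei count in treated wells divided by that in vehicle wells. Values are medians of duplicate plates.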

EKVX = tested on: EKVX
Outline: as §1

HARA = tested on: HARA
Outline: as §1

HCC-366 = tested on: HCC-366
Outline: as §1

HCC-827 = tested on: HCC-827
Outline: as §1

LOU-NH91 = tested on: LOU-NH91
Outline: as §1

NCI-H1355 = tested on: NCI-H1355
Outline: as §1

NCI-H1437 = tested on: NCI-H1437
Outline: as §1

NCI-H1734 = tested on: NCI-H1734
Outline: as §1

NCI-H1792 = tested on: NCI-H1792
Outline: as §1

NCI-H1993 = tested on: NCI-H1993
Outline: as §1

NCI-H2009 = tested on: NCI-H2009
Outline: as §1

NCI-H2087 = tested on: NCI-H2087
Outline: as §1

NCI-H2170 = tested on: NCI-H2170
Outline: as §1

NCI-H2405 = tested on: NCI-H2405
Outline: as §1

NCI-H647 = tested on: NCI-H647
Outline: as §1

NCI-H661 = tested on: NCI-H661
Outline: as §1

SK-LU-1 = tested on: SK-LU-1
Outline: as §1

SK-MES-1 = tested on: SK-MES-1
Outline: as §1

CC(=O)O[C@@]12CO[C@@H]1C[C@H](O)[C@@]1(C)C(=O)[C@H](O)C3=C(C)[C@@H](OC(=O)[C@H](O)[C@@H](NC(=O)OC(C)(C)C)c4ccccc4)C[C@@](O)([C@@H](OC(=O)c4ccccc4)[C@H]21)C3(C)C [Docetaxel] + C[C@@H](Oc1cc(-c2cnn(C3CCNCC3)c2)cnc1N)c1c(Cl)ccc(F)c1Cl [Crizotinib] (partner 1 µM)
relative viability (BEN; first compound 0.0002 µM): 0.859 | relative viability (BEN; first compound 0.000632 µM): 0.809 | relative viability (BEN; first compound 0.002 µM): 0.42 | relative viability (BEN; first compound 0.006325 µM): 0.222 | relative viability (EKVX; first compound 0.0002 µM): 0.725 | relative viability (EKVX; first compound 0.000632 µM): 0.885 | relative viability (EKVX; first compound 0.002 µM): 0.432 | relative viability (EKVX; first compound 0.006325 µM): 0.25 | relative viability (EKVX; first compound 0.02 µM): 0.145 | relative viability (HARA; first compound 0.0002 µM): 0.903 | relative viability (HARA; first compound 0.000632 µM): 0.364 | relative viability (HARA; first compound 0.002 µM): 0.312 | relative viability (HARA; first compound 0.006325 µM): 0.0907 | relative viability (HARA; first compound 0.02 µM): 0.104 | relative viability (HCC-366; first compound 0.0002 µM): 0.426 | relative viability (HCC-366; first compound 0.000632 µM): 0.0953 | relative viability (HCC-366; first compound 0.002 µM): 0.0204 | relative viability (HCC-366; first compound 0.006325 µM): 0.0165 | relative viability (HCC-366; first compound 0.02 µM): 0.0108 | relative viability (HCC-827; first compound 0.0002 µM): 0.943 | relative viability (HCC-827; first compound 0.000632 µM): 0.91 | relative viability (HCC-827; first compound 0.002 µM): 0.68 | relative viability (HCC-827; first compound 0.006325 µM): 0.416 | relative viability (HCC-827; first compound 0.02 µM): 0.342 | relative viability (LOU-NH91; first compound 0.0002 µM): 0.734 | relative viability (LOU-NH91; first compound 0.000632 µM): 0.664 | relative viability (LOU-NH91; first compound 0.002 µM): 0.508 | relative viability (LOU-NH91; first compound 0.006325 µM): 0.373 | relative viability (LOU-NH91; first compound 0.02 µM): 0.362 | relative viability (NCI-H1355; first compound 0.0002 µM): 1.01 | relative viability (NCI-H1355; first compound 0.000632 µM): 0.893 | relative viability (NCI-H1355; first compound 0.002 µM): 0.456 | relative viability (NCI-H1355; first compound 0.006325 µM): 0.241 | relative viability (NCI-H1355; first compound 0.02 µM): 0.198 | relative viability (NCI-H1437; first compound 0.0002 µM): 0.901 | relative viability (NCI-H1437; first compound 0.000632 µM): 0.878 | relative viability (NCI-H1437; first compound 0.002 µM): 0.197 | relative viability (NCI-H1437; first compound 0.006325 µM): 0.113 | relative viability (NCI-H1437; first compound 0.02 µM): 0.11 | relative viability (NCI-H1734; first compound 0.0002 µM): 0.498 | relative viability (NCI-H1734; first compound 0.000632 µM): 0.576 | relative viability (NCI-H1734; first compound 0.002 µM): 0.362 | relative viability (NCI-H1734; first compound 0.006325 µM): 0.298 | relative viability (NCI-H1734; first compound 0.02 µM): 0.246 | relative viability (NCI-H1792; first compound 0.0002 µM): 0.929 | relative viability (NCI-H1792; first compound 0.000632 µM): 0.905 | relative viability (NCI-H1792; first compound 0.002 µM): 0.646 | relative viability (NCI-H1792; first compound 0.02 µM): 0.115 | relative viability (NCI-H1993; first compound 0.0002 µM): 0.93 | relative viability (NCI-H1993; first compound 0.000632 µM): 0.787 | relative viability (NCI-H1993; first compound 0.002 µM): 0.791 | relative viability (NCI-H1993; first compound 0.006325 µM): 0.537 | relative viability (NCI-H1993; first compound 0.02 µM): 0.508 | relative viability (NCI-H2009; first compound 0.0002 µM): 0.95 | relative viability (NCI-H2009; first compound 0.000632 µM): 1.03 | relative viability (NCI-H2009; first compound 0.002 µM): 0.426 | relative viability (NCI-H2009; first compound 0.006325 µM): 0.252 | relative viability (NCI-H2009; first compound 0.02 µM): 0.174 | relative viability (NCI-H2087; first compound 0.0002 µM): 0.854 | relative viability (NCI-H2087; first compound 0.000632 µM): 0.684 | relative viability (NCI-H2087; first compound 0.002 µM): 0.334 | relative viability (NCI-H2087; first compound 0.006325 µM): 0.182 | relative viability (NCI-H2087; first compound 0.02 µM): 0.156 | relative viability (NCI-H2170; first compound 0.0002 µM): 1.04 | relative viability (NCI-H2170; first compound 0.000632 µM): 0.999 | relative viability (NCI-H2170; first compound 0.002 µM): 0.671 | relative viability (NCI-H2170; first compound 0.006325 µM): 0.304 | relative viability (NCI-H2170; first compound 0.02 µM): 0.199 | relative viability (NCI-H2405; first compound 0.0002 µM): 0.87 | relative viability (NCI-H2405; first compound 0.000632 µM): 0.623 | relative viability (NCI-H2405; first compound 0.002 µM): 0.447 | relative viability (NCI-H2405; first compound 0.006325 µM): 0.396 | relative viability (NCI-H2405; first compound 0.02 µM): 0.292 | relative viability (NCI-H647; first compound 0.0002 µM): 0.769 | relative viability (NCI-H647; first compound 0.000632 µM): 0.319 | relative viability (NCI-H647; first compound 0.002 µM): 0.172 | relative viability (NCI-H647; first compound 0.006325 µM): 0.117 | relative viability (NCI-H647; first compound 0.02 µM): 0.1 | relative viability (NCI-H661; first compound 0.000632 µM): 1.06 | relative viability (NCI-H661; first compound 0.002 µM): 0.914 | relative viability (NCI-H661; first compound 0.006325 µM): 0.68 | relative viability (NCI-H661; first compound 0.02 µM): 0.503 | relative viability (SK-LU-1; first compound 0.0002 µM): 0.692 | relative viability (SK-LU-1; first compound 0.000632 µM): 0.567 | relative viability (SK-LU-1; first compound 0.002 µM): 0.379 | relative viability (SK-LU-1; first compound 0.006325 µM): 0.249 | relative viability (SK-LU-1; first compound 0.02 µM): 0.272 | relative viability (SK-MES-1; first compound 0.0002 µM): 0.937 | relative viability (SK-MES-1; first compound 0.000632 µM): 0.845 | relative viability (SK-MES-1; first compound 0.002 µM): 0.287 | relative viability (SK-MES-1; first compound 0.006325 µM): 0.221 | relative viability (SK-MES-1; first compound 0.02 µM): 0.177
